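Interpolation was linear, between the two tested concentrations surrounding the appropriate level; five concentrations were tested over 48 hours in 96-well plates. GI50 marks 50% less growth. TGI marks complete inhibition of growth.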
How the values were obtained:
Assay in all cases: NCI tumour cell line growth inhibition, 48 h
[1] = test system: SK-MEL-5 melanoma
[2] = test system: SK-MEL-28 melanoma
[3] = test system: OVCAR-3 ovarian
[4] = test system: HOP-62 NSCLC
[5] = test system: NCI-H460 lung
[6] = test system: SNB-75 CNS
[7] = test system: DU-145 prostate
[8] = test system: MDA-N
[9] = test system: CAKI-1 renal
[10] = test system: SNB-19 CNS

Row | Structure (SMILES) | TGI [1] [µM] | TGI [2] [µM] | TGI [3] [µM] | TGI [4] [µM] | TGI [5] [µM] | TGI [6] [µM] | TGI [7] [µM] | TGI [8] [µM] | TGI [9] [µM] | TGI [10] [µM] | GI50 [1] [µM] | GI50 [2] [µM] | GI50 [3] [µM] | GI50 [9] [µM] | GI50 [4] [µM] | GI50 [5] [µM] | GI50 [6] [µM] | GI50 [10] [µM] | GI50 [7] [µM]
1 | CC1OC=CC(=O)C1O (stereo not drawn) | > 100 | > 100 | > 100 | > 100 | > 100 | > 100 |  |  |  |  |  |  |  |  |  |  |  |  | 
2 | COC(=O)c1c(C#C[Si](C)(C)C)c(C#C[Si](C)(C)C)c(C#C[Si](C)(C)C)c(C#C[Si](C)(C)C)c1C(=O)OC | > 100 | > 100 | > 100 |  | > 100 | > 100 | > 100 | > 100 | > 100 | > 100 |  |  |  |  |  |  |  |  | 
3 | COc1ccc(N2C(=O)/C(=C/c3ccc(N(CCC#N)CCC#N)cc3)N=C2c2ccccc2)c(OC)c1 | > 100 | > 100 | > 100 |  | > 100 | > 100 | > 100 | > 100 | > 100 | > 100 |  |  |  |  |  |  |  |  | 
4 | O=c1/c(=C/c2ccc(-c3ccc(Cl)cc3Cl)o2)sc2n1[C@@H](c1ccc3c(c1)OCO3)C=C(c1cc(F)c(Cl)cc1Cl)N=2 | > 100 | > 100 |  | 28.9 | > 100 | > 100 | > 100 | > 100 | > 100 | 95.4 |  |  |  |  |  |  |  |  | 
5 | CC(C)CC(NC(=O)C(COc1ccc([N+](=O)[O-])cc1)Cc1ccccc1)C(=O)Nc1ccccc1 (stereo not drawn) | > 100 |  | > 100 |  | 13.2 | 7.84 | > 100 | > 100 | 83.8 | 20.2 |  |  |  |  |  |  |  |  | 
6 | COc1ccc(NC(=S)NNC(=O)c2cc(-c3ccccc3)nc3ccccc23)cc1 | 25.6 | 43.3 | 33.1 | 33.3 | 35.9 | 70.3 | 45.4 | 15.5 | 60 | > 100 |  |  |  |  |  |  |  |  | 
7 | C=C1C(=O)O[C@H]2C3C(=C(C)CC[C@@H]12)C(=O)[C@@H]1OC31C (stereo partly drawn) | 6.11 | 5.52 | 4.38 | 28.6 | 25.3 | 6.57 | 25.8 | 3.95 | 7.9 | 29.5 |  |  |  |  |  |  |  |  | 
8 | C=C1CC(OC)(C(O)C(=O)N[C@H]2OCO[C@H]3C2O[C@H](C[C@H](O)COC)C(C)(C)C3OC)O[C@H](C)[C@@H]1C (stereo partly drawn) | > 0.00772 | > 0.00772 | > 0.00772 | > 0.00772 | > 0.00772 | > 0.00772 |  |  |  | > 0.00772 |  |  |  |  |  |  |  |  | 
9 | COc1cccc2c1[C@]1(O)C(O)CCCC21 (stereo partly drawn) | > 100 | > 100 | > 100 | > 100 | > 100 | > 100 |  |  | > 100 | > 100 |  |  |  |  |  |  |  |  | 
10 | CCCC(=O)OC1CC(n2cc(F)c(=O)[nH]c2=O)OC1CO (stereo not drawn) | 1.84 | > 10 | > 10 | > 10 | > 10 | > 8.14 | > 3.23 | > 10 | > 10 | > 10 |  |  |  |  |  |  |  |  | 
11 | CCOC(=O)c1cn(C)nc1N/C(C)=C\C(=O)c1ccccc1 | > 100 | > 100 | > 100 | > 100 | > 100 |  | > 100 |  | > 100 | > 100 |  |  |  |  |  |  |  |  | 
12 | CN(C)c1ccc(/C=C2\C[C@H]3[C@@H]4CCc5cc(O)ccc5[C@H]4CC[C@]3(C)C2=O)cc1 | > 100 | > 100 | > 100 | > 100 | > 100 | > 100 | > 100 | > 100 | > 100 | > 100 |  |  |  |  |  |  |  |  | 
13 | Cc1ccc2c(=O)c(C(=O)N(CCO)CCO)c[nH]c2n1 | > 100 | > 100 | > 100 | > 100 | > 100 |  | > 100 | > 100 | > 100 | > 100 |  |  |  |  |  |  |  |  | 
14 | N#Cc1c(C#N)c(-c2ccccc2)n(/N=C\c2ccccc2)c1N | 32.8 |  | 48.1 | > 100 |  | 74.2 | > 100 | > 100 | > 100 | > 100 |  |  |  |  |  |  |  |  | 
15 | CC1(C)N=C(N)N=C(N)N1c1ccc(OCCCOc2ccccc2)c(Cl)c1 | 3 | 9.16 | 14 |  | 12.4 | 17.3 |  |  | 44.3 | 1.06 |  |  |  |  |  |  |  |  | 
16 | CSC1NNC2(C(=O)N1)c1ccccc1-c1ccccc12 (stereo not drawn) | > 10 | > 10 |  | > 10 | > 10 | > 10 | > 10 | > 10 | > 10 | > 10 |  |  |  |  |  |  |  |  | 
17 | CCOC(=O)CCC(C(=O)OCC)n1nnc2cc(Nc3c(C)[n+]([O-])c4ccc(Cl)cc4[n+]3[O-])ccc21 (stereo not drawn) | > 100 |  | > 100 | > 100 | > 100 | > 100 | > 100 | > 100 | > 100 | > 100 |  |  |  |  |  |  |  |  | 
18 | NC1CCCCC1N.O=S(=O)([O-])CCCN1CCN(CCO)CC1.O=S(=O)([O-])CCCN1CCN(CCO)CC1.[Pt+4] | 17.2 | 29.8 | > 36.4 | > 100 | > 46 | > 100 |  |  | 9.16 | > 100 | 2.57 | 8.22 | 4.44 | 0.856 | > 20.7 | 1.15 | > 39.9 | 43.1 | 
19 | S=C(Nc1ccc2c(c1)Cc1ccccc1-2)Nc1ccc2c(c1)Cc1ccccc1-2 | > 100 | > 100 | > 100 | > 100 | > 100 |  | > 100 | > 100 | > 100 | > 100 |  |  |  |  |  |  |  |  | 
20 | CC(=O)Nc1ccc(/C=C(\NC(=O)c2ccccc2)C(=O)NNS(=O)(=O)c2ccc(C)cc2)cc1 | > 100 | > 100 | > 100 | > 100 | > 100 | > 100 |  |  | > 100 | > 100 |  |  |  |  |  |  |  |  | 
21 | c1cc2ccc1CNCCN1CCNCc3ccc(cc3)Oc3ccc(cc3)CNCCN(CCNCc3ccc(cc3)O2)CCNCc2ccc(cc2)Oc2ccc(cc2)CNCC1 | 5.19 | 3.21 | 3.05 | 2.96 | 3.27 |  | 2.83 |  | 12.9 |  | 2.26 | 1.75 | 1.65 | 3.07 | 1.51 | 1.71 |  |  | 1.46
